According to patent US20250114345A1, “COMPOUNDS AND COMPOSITIONS AS CBP/P300 DEGRADERS AND USES THEREOF” (Oncopia Therapeutics, Inc. d/b/a/ SK Life Science Labs, priority 2023, published 2025):

Biological target: T1, p300 (Homo sapiens, UniProt Q09472)
T1 construct: host or cells: A549 P300 HiBit cells
Experiment: P300 degradation, HiBit technology in A549 P300 HiBit cells (2 h)
Assay type: cell-based
Settings: 2 hrs post treatment; for Dmax: A549, A549 P300 HiBit cells; for DC50: A549 P300 HiBit cells
Method in brief: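 Degradation potency and Dmax came from luminescence after 10 min room-temperature lysis with HiBit detection buffer. Beforehand, HiBit-tagged A549 lines received serial compound dilutions (10 mM DMSO stocks) at 37 °C, 5% CO2. CBP cells were read at 24 h, p300 cells at 2 h.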

T1 sequence (Q09472 whole entry): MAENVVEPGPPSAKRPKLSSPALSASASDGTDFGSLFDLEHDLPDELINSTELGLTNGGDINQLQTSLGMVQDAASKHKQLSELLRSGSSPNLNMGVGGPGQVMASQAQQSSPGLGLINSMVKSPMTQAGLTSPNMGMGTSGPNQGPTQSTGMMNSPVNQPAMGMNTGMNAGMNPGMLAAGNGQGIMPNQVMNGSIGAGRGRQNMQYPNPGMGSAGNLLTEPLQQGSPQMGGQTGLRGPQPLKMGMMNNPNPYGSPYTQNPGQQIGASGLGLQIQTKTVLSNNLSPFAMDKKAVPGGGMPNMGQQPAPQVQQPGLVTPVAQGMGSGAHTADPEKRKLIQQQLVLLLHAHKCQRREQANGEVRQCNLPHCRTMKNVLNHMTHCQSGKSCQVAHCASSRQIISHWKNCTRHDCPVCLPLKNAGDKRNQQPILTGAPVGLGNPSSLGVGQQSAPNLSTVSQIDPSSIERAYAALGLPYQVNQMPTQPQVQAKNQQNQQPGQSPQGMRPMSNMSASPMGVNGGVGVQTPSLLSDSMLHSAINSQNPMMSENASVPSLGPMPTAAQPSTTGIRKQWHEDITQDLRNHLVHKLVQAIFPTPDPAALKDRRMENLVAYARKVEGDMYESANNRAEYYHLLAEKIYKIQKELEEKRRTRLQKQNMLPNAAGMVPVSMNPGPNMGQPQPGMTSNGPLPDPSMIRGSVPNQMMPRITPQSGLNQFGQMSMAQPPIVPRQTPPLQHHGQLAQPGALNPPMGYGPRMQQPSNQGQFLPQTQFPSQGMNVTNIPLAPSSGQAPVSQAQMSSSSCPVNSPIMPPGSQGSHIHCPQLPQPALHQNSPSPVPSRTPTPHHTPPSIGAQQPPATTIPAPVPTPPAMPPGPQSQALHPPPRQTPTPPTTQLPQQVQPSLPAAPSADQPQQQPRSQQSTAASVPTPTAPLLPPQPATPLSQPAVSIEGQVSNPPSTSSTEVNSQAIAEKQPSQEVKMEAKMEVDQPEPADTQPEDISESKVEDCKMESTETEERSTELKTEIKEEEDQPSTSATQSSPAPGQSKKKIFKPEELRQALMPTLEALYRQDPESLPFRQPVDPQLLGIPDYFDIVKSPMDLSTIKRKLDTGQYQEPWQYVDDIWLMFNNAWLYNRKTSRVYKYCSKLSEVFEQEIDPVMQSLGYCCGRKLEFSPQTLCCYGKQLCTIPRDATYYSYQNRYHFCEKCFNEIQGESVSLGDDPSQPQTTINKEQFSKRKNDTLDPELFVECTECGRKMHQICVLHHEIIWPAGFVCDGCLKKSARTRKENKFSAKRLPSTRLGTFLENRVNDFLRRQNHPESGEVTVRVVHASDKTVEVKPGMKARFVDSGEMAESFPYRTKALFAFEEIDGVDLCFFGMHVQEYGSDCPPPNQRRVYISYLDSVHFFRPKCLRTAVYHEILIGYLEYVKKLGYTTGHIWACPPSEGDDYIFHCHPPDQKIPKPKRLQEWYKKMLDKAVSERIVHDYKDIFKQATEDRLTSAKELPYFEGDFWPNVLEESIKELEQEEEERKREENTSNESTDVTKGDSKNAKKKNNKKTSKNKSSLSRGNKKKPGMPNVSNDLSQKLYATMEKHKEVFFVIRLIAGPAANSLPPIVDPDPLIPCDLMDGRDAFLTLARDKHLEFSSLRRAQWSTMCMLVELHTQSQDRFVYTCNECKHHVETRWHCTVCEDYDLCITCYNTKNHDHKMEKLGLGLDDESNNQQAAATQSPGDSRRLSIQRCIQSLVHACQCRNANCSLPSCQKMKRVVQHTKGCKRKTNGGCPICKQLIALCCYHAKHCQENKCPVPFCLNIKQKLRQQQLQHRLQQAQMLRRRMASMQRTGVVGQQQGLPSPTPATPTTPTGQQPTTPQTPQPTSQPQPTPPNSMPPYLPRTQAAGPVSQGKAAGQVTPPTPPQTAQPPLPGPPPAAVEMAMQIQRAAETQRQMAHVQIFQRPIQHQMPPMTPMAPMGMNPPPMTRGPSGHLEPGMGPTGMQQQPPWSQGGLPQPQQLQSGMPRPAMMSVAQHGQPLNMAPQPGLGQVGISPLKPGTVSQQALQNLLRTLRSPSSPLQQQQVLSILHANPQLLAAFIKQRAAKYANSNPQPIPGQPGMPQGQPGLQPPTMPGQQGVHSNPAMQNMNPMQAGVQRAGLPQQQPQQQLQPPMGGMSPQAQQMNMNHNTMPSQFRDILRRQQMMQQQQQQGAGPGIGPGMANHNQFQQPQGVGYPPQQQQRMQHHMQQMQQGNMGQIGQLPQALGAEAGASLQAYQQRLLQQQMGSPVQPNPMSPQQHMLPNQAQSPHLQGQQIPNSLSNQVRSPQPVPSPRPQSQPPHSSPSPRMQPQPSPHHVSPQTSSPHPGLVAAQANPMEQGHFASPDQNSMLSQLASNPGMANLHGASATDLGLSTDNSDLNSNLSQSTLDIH

| SMILES | Dmax [%] | DC50 [nM] |
| --- | --- | --- |
| Cc1cc(-c2cnc(N(C)c3cc(C4CCOCC4)c4c(c3)n(C)c(=O)n4C)cn2)cnc1C(=O)NCC#Cc1cc2c(C3CCC(=O)NC3=O)nccc2o1 (stereo not shown) [Example A176, 5-(5-((1,3-dimethyl-2-oxo-7-(tetrahydro-2H-pyran-4-yl)-2,3-dihydro-1H-benzo[d]imidazol-5-yl)(methyl)amino)pyrazin-2-yl)-N-(3-(4-(2,6-dioxopiperidin-3-yl)furo[3,2-c]pyridin-2-yl)prop-2-yn-1-yl)-3-methylpicolinamide] | > 80 | 10 to 99 |
| Cn1c(=O)n(C)c2cc(-c3cccc4cc(-c5ccc(C(=O)NCC#Cc6cc7c(C8CCC(=O)NC8=O)cccc7o6)nc5)ncc34)ncc21 (stereo not shown) [Example A179, 5-(8-(1,3-dimethyl-2-oxo-2,3-dihydro-1H-imidazo[4,5-c]pyridin-6-yl)isoquinolin-3-yl)-N-(3-(4-(2,6-dioxopiperidin-3-yl)benzofuran-2-yl)prop-2-yn-1-yl)picolinamide] | 60 to 79 | 1 to 9.9 |
| Cc1cc(-c2cccc3cc(-c4ccc(C(=O)NCC#Cc5cc6c(C7CCC(=O)NC7=O)cccc6o5)nc4)ncc23)cc2c1n(C)c(=O)n2C (stereo not shown) [Example A183, N-(3-(4-(2,6-dioxo-piperidin-3-yl)benzofuran-2-yl)prop-2-yn-1-yl)-5-(8-(1,3,7-trimethyl-2-oxo-2,3-dihydro-1H-benzo[d]imidazol-5-yl)isoquinolin-3-yl)picolinamide] | > 80 | < 1 |
| CC(C)c1cc(-c2cccc3cc(-c4ccc(C(=O)NCC#Cc5ccc6c(c5)N(C5CCC(=O)NC5=O)CC6)nc4)ncc23)cc2c1n(C)c(=O)n2C (stereo not shown) [Example A184, N-(3-(1-(2,6-dioxo-piperidin-3-yl)indolin-6-yl)prop-2-yn-1-yl)-5-(8-(7-isopropyl-1,3-dimethyl-2-oxo-2,3-dihydro-1H-benzo[d]imidazol-5-yl)isoquinolin-3-yl)picolinamide] | > 80 | 10 to 99 |
| CC(C)c1cc(-c2cccc3cc(-c4ccc(C(=O)NCC#Cc5nc6c(C7CCC(=O)NC7=O)cccc6n5C)nc4)ncc23)cc2c1n(C)c(=O)n2C (stereo not shown) [Example A186, N-(3-(4-(2,6-dioxo-piperidin-3-yl)-1-methyl-1H-benzo[d]imidazol-2-yl)prop-2-yn-1-yl)-5-(8-(7-iso-propyl-1,3-dimethyl-2-oxo-2,3-dihydro-1H-benzo[d]imidazol-5-yl)isoquinolin-3-yl)picolinamide] | < 20 | > 1000 |
| Cc1nc(-c2ncc(N(C)c3cc(C4CCOCC4)c4c(c3)n(C)c(=O)n4C)cn2)cnc1C(=O)NCC#Cc1cc2c(C3CCC(=O)NC3=O)cccc2o1 (stereo not shown) [Example A187, 5-(5-((1,3-dimethyl-2-oxo-7-(tetrahydro-2H-pyran-4-yl)-2,3-dihydro-1H-benzo[d]imidazol-5-yl)(methyl)amino)pyrimidin-2-yl)-N-(3-(4-(2,6-dioxopiperidin-3-yl)benzofuran-2-yl)prop-2-yn-1-yl)-3-methylpyrazine-2-carboxamide] | > 80 | 1 to 9.9 |
| Cc1cc(N2CCCc3nc(-c4ccc(C(=O)NCC#Cc5cc6c(C7CCC(=O)NC7=O)cccc6o5)nc4)ncc32)cc2c1n(C)c(=O)n2C (stereo not shown) [Example A188, N-(3-(4-(2,6-dioxo-piperidin-3-yl)benzofuran-2-yl)prop-2-yn-1-yl)-5-(5-(1,3,7-trimethyl-2-oxo-2,3-dihydro-1H-benzo[d]imidazol-5-yl)-5,6,7,8-tetrahydropyrido[3,2-d]pyrimidin-2-yl)picolinamide] | > 80 | < 1 |
| Cn1c(=O)n(C)c2cc(N3CCOc4nc(-c5ccc(C(=O)NCC#Cc6ccc7nnn(C8CCC(=O)NC8=O)c7c6)nc5)ncc43)ccc21 (stereo not shown) [Example A190, 5-(5-(1,3-dimethyl-2-oxo-2,3-dihydro-1H-benzo[d]imidazol-5-yl)-6,7-dihydro-5H-pyrimido[4,5-b][1,4]oxazin-2-yl)-N-(3-(1-(2,6-dioxopiperidin-3-yl)-1H-benzo[d] [1,2,3]triazol-6-yl)prop-2-yn-1-yl)picolinamide] | 60 to 79 | 1 to 9.9 |
| Cc1cc(-c2ncc(N(C)c3ccc4c(c3)n(C)c(=O)n4C)cn2)cnc1C(=O)NCC#Cc1cc2c(C3CCC(=O)NC3=O)nccc2o1 (stereo not shown) [Example A192, 5-(5-((1,3-dimethyl-2-oxo-2,3-dihydro-1H-benzo[d]imidazol-5-yl)(methyl)amino)pyrimidin-2-yl)-N-(3-(4-(2,6-dioxopiperidin-3-yl)furo[3,2-c]pyridin-2-yl)prop-2-yn-1-yl)-3-methylpicolinamide] | > 80 | 1 to 9.9 |
| Cc1cc(-c2cnc(Nc3cc(C4CCOCC4)c4c(c3)n(C)c(=O)n4C)cn2)cnc1C(=O)NCC#Cc1cc2c(C3CCC(=O)NC3=O)cccc2o1 (stereo not shown) [Example A193] | < 20 | > 1000 |
| CC(C)c1cc(-c2cccc3cc(-c4ccc(C(=O)NCC#Cc5cnc6occ(C7CCC(=O)NC7=O)c6c5)nc4)ncc23)cc2c1n(C)c(=O)n2C (stereo not shown) [Example A196, N-(3-(3-(2,6-dioxo-piperidin-3-yl)furo[2,3-b]pyridin-5-yl)prop-2-yn-1-yl)-5-(8-(7-isopropyl-1,3-dimethyl-2-oxo-2,3-dihydro-1H-benzo[d]imidazol-5-yl)isoquinolin-3-yl)picolinamide] | > 80 | 1 to 9.9 |
| Cc1cc(-c2cc(N(C)C)c(N(C)c3cc(C4CCOCC4)c4c(c3)n(C)c(=O)n4C)cn2)cnc1C(=O)NCC#Cc1cc2c(C3CCC(=O)NC3=O)cccc2o1 (stereo not shown) [Example A198, 5-((1,3-dimethyl-2-oxo-7-(tetrahydro-2H-pyran-4-yl)-2,3-dihydro-1H-benzo[d]imidazol-5-yl)(methyl)amino)-4-(dimethylamino)-N-(3-(4-(2,6-dioxopiperidin-3-yl)benzofuran-2-yl)prop-2-yn-1-yl)-5′-methyl-[2,3′-bipyridine]-6′-carboxamide] | < 20 | > 1000 |
| Cc1nc(-c2cnc(N(C)c3cc(C4CCOCC4)c4c(c3)n(C)c(=O)n4C)cn2)cnc1C(=O)NCC#Cc1cc2c(C3CCC(=O)NC3=O)nccc2o1 (stereo not shown) [Example A200, 5′-((1,3-dimethyl-2-oxo-7-(tetrahydro-2H-pyran-4-yl)-2,3-dihydro-1H-benzo [d]imidazol-5-yl) (methyl)amino)-N-(3-(4-(2,6-dioxo-piperidin-3-yl)furo[3,2-c]pyridin-2-yl)prop-2-yn-1-yl)-6-methyl-[2,2′-bipyrazine]-5-carboxamide] | > 80 | 1 to 9.9 |
| Cc1cc(-c2ncc(N(C)c3cc(C4CCOCC4)c4c(c3)n(C)c(=O)n4C)cn2)cnc1C(=O)NCC#Cc1ccc2occ(C34CC(C3)C(=O)NC4=O)c2c1 [Example A201, 5-(5-((1,3-dimethyl-2-oxo-7-(tetrahydro-2H-pyran-4-yl)-2,3-dihydro-1H-benzo[d]imidazol-5-yl)(methyl)amino)pyrimidin-2-yl)-N-(3-(3-(2,4-dioxo-3-azabicyclo[3.1.1]heptan-1-yl)benzofuran-5-yl)prop-2-yn-1-yl)-3-methylpicolinamide] | > 80 | 1 to 9.9 |
| Cn1c(=O)n(C)c2c(N3CCC3)nc(-c3cccc4cc(-c5ccc(C(=O)NCC#Cc6cc7c(C8CCC(=O)NC8=O)cccc7o6)nc5)ncc34)cc21 (stereo not shown) [Example A205, 5-(8-(4-(azetidin-1-yl)-1,3-dimethyl-2-oxo-2,3-dihydro-1H-imidazo[4,5-c]pyridin-6-yl)iso-quinolin-3-yl)-N-(3-(4-(2,6-dioxopiperidin-3-yl)benzofuran-2-yl)prop-2-yn-1-yl)picolinamide] | > 80 | 1 to 9.9 |
| Cn1c(=O)n(C)c2c(N3CCOCC3)nc(-c3cccc4cc(-c5ccc(C(=O)NCC#Cc6cc7c(C8CCC(=O)NC8=O)nccc7o6)nc5)ncc34)cc21 (stereo not shown) [Example A206, 5-(8-(1,3-dimethyl-4-morpholino-2-oxo-2,3-dihydro-1H-imidazo[4,5-c]pyridin-6-yl)isoquinolin-3-yl)-N-(3-(4-(2,6-dioxopiperidin-3-yl)furo[3,2-c]pyridin-2-yl)prop-2-yn-1-yl)picolinamide] | > 80 | < 1 |
| Cc1cc(N2CCN(C)c3cc(-c4ccc(C(=O)NCC#Cc5cc6c(C7CCC(=O)NC7=O)nccc6o5)nc4)ncc32)cc2c1n(C)c(=O)n2C (stereo not shown) [Example A209, N-(3-(4-(2,6-dioxo-piperidin-3-yl)furo [3,2-c]pyridin-2-yl)prop-2-yn-1-yl)-5-(1-methyl-4-(1,3,7-trimethyl-2-oxo-2,3-dihydro-1H-benzo[d]imidazol-5-yl)-1,2,3,4-tetrahydropyrido[3,4-b]pyrazin-7-yl)picolinamide] | > 80 | < 1 |
| CC(C)c1cc(-c2cccc3cc(-c4ccc(C(=O)NCC#Cc5ccc6ncnc(C7CCC(=O)NC7=O)c6c5)nc4)ncc23)cc2c1n(C)c(=O)n2C (stereo not shown) [Example A214, N-(3-(4-(2,6-dioxo-piperidin-3-yl)quinazolin-6-yl)prop-2-yn-1-yl)-5-(8-(7-isopropyl-1,3-dimethyl-2-oxo-2,3-dihydro-1H-benzo [d]imidazol-5-yl)isoquinolin-3-yl)picolinamide] | 60 to 79 | 10 to 99 |
| Cn1c(=O)n(C)c2cc(N3CCCc4nc(-c5ccc(C(=O)NCC#Cc6ccc7occ(C89CC(C8)C(=O)NC9=O)c7c6)nc5)ncc43)ccc21 [Example A215, 5-(5-(1,3-dimethyl-2-oxo-2,3-dihydro-1H-benzo[d]imidazol-5-yl)-5,6,7,8-tetrahydropyrido[3,2-d]pyrimidin-2-yl)-N-(3-(3-(2,4-dioxo-3-azabicyclo[3.1.1]heptan-1-yl)benzofuran-5-yl)prop-2-yn-1-yl)picolinamide] | 60 to 79 | 10 to 99 |
| Cn1c(=O)n(C)c2cc(N3CCCc4cc(-c5ccc(C(=O)NCC#Cc6cc7c(C8CCC(=O)NC8=O)cccc7o6)nc5)nnc43)ccc21 (stereo not shown) [Example A217, 5-(8-(1,3-dimethyl-2-oxo-2,3-dihydro-1H-benzo[d]imidazol-5-yl)-5,6,7,8-tetrahydropyrido[2,3-c]pyridazin-3-yl)-N-(3-(4-(2,6-dioxo-piperidin-3-yl)benzofuran-2-yl)prop-2-yn-1-yl)picolinamide] | > 80 | 1 to 9.9 |
